Reference: patent US7939270B2 (priority 2005, dated 2011)

Target: WT αHL protein pore (Staphylococcus aureus, UniProt P09616)
Type: binding
Conditions: pH 7

WT αHL protein pore, sequence (P09616 27-319 limits assumed): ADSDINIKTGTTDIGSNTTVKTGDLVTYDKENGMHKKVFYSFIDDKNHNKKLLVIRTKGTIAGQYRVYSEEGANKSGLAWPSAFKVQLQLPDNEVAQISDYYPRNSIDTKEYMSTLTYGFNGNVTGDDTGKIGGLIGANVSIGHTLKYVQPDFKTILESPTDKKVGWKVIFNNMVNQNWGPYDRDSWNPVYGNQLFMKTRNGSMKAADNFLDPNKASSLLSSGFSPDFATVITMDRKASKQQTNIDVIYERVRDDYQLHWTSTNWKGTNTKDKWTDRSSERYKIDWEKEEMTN

Compound: OC[C@H]1O[C@@H]2O[C@H]3[C@H](O)[C@@H](O)[C@@H](O[C@H]4[C@H](O)[C@@H](O)[C@@H](O[C@H]5[C@H](O)[C@@H](O)[C@@H](O[C@H]6[C@H](O)[C@@H](O)[C@@H](O[C@H]7[C@H](O)[C@@H](O)[C@@H](O[C@H]8[C@H](O)[C@@H](O)[C@@H](O[C@H]9[C@H](O)[C@@H](O)[C@@H](O[C@H]1[C@H](O)[C@H]2O)O[C@@H]9CO)O[C@@H]8CO)O[C@@H]7CO)O[C@@H]6CO)O[C@@H]5CO)O[C@@H]4CO)O[C@@H]3CO [γ-cyclodextrin]
- binding kinetics and current attenuation of γ-cyclodextrin binding, pore inserted by the present method compared with the conventional method: the same
